Experimental data as given in patent EP4631938A1, “NITROGEN-CONTAINING HETEROCYCLE WITH SEROTONIN RECEPTOR-BINDING ACTIVITY AND CARBOCYCLIC DERIVATIVE” (Shionogi & Co., Ltd, priority 2022, dated 2024).
Like-named read-outs stand apart in the source and are kept apart here.

How the values were obtained:
[1] = target: T1, human recombinant 5-HT2A receptor (Homo sapiens, UniProt P28223); assay: Test Example 1-2: 5-HT2A receptor binding inhibition test ([3H]-Ketanserin; non-specific ligand Ketanserin)
T1 construct: expressed in transfected cells; host or cells: Jump-In HEK cells (membrane preparation)
T1 sequence (P28223 whole entry): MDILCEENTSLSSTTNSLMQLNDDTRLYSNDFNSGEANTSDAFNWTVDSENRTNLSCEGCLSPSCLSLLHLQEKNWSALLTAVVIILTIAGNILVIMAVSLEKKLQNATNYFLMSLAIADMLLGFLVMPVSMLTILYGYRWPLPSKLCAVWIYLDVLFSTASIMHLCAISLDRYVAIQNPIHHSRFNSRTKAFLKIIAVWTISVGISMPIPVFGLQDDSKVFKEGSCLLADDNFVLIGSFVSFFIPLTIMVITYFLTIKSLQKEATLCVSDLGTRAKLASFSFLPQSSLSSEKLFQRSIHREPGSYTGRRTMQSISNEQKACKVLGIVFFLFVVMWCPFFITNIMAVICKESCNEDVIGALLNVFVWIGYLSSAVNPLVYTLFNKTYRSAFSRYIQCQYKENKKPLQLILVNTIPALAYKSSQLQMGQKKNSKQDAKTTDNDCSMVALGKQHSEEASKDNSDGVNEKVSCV
Outline: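 Membranes expressing the receptor were incubated with [3H]-ketanserin and compound for 1.5 h at 25 °C, then filtered onto plates presoaked in 50 mmol/L Tris-HCl pH 7.4 and scintillation-counted. Non-specific binding was defined with 500 µmol/L unlabeled ketanserin. Ki was taken from dose-response curves, with Kd set for each membrane lot by Scatchard analysis.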

[2] = target: T2, human recombinant 5-HT2C receptor (Homo sapiens, UniProt P28335); assay: Test Example 2-2: 5-HT2C receptor binding inhibition test ([3H]-Mesulergine; non-specific ligand Ketanserin); conditions: non-specific binding with 500 µmol/L Ketanserin, 37°C, 2 hours
T2 construct: expressed in transfected cells; host or cells: Jump-In HEK cells (membrane preparation)
T2 sequence (P28335 33-458): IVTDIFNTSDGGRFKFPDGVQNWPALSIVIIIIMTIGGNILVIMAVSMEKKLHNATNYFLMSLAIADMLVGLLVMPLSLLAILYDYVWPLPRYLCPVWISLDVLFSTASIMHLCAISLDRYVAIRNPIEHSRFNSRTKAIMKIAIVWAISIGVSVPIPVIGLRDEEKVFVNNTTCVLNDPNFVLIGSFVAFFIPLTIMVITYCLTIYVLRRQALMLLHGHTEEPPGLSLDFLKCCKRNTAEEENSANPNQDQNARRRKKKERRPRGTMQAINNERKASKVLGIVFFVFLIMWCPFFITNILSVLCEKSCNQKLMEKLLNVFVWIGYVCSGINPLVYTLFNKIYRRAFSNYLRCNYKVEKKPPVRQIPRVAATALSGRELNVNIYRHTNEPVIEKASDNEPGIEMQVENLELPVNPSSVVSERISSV
Procedure: The Kd value is calculated when the lot of the cell membrane is changed. 1 mmol/L non-specific binding calculating compound dissolved in DMSO or DMSO is previously dispensed to the microplate by 0.5 µL, and the cell membrane is diluted with an Assay buffer. The radioactive ligand solution is diluted step by step, and counts are checked with a liquid scintillator. The Assay buffer containing diluted cell membranes is dispensed by 50 µL/well into the microplate. The radioactive ligand solution is then dispensed by 50 µL/well into the microplate and the plate is sealed. The microplate is allowed to stand at 37°C for 2 hours. During this time, 50 mmol/L Tris-HCl (pH 7.4) is dispensed by 50 µL/well into the UniFilter plate and allowed to stand at 4°C for 1 hour or longer. Thereafter, filtration is performed with a Cell Harvester (PerkinElmer). The radioactive ligand solution is dispensed by 10 µL/well into empty wells of the UniFilter plate. After drying the UniFilter plate at room temperature, MicroScinti20 is dispensed by 50 µL/well into the UniFilter plate, and the plate is sealed. UniFilter plate is allowed to stand at room temperature overnight. The radioactivity of [^3H]-Mesulergine bound to the 5-HT2C receptor is measured using Microbeta2 (PerkinElmer) at a measurement time of 1 min/well. The Saturation curve is drawn from the measured value, and the Kd value is calculated from the slope of the Scatchard Plot.
A compound solution dissolved in DMSO is dispensed to a microplate by 0.5 µL, and a cell membrane and a hot ligand are each diluted with an Assay buffer. The Assay buffer containing diluted cell membrane is then dispensed by 50 µL/well into the microplate. The radioactive ligand solution is then dispensed by 50 µL/well into the microplate and the plate is sealed. The microplate is then allowed to stand at 37°C for 2 hours. During this time, 50 mmol/L Tris-HCl (pH 7.4) is dispensed by 50 µL/well into the UniFilter plate and allowed to stand at 4°C for 1 hour or longer. Thereafter, filtration is performed with a Cell Harvester (PerkinElmer). After drying the UniFilter plate at room temperature, MicroScinti20 is dispensed by 50 µL/well into the UniFilter plate, and the plate is sealed. UniFilter plate is allowed to stand at room temperature overnight. The radioactivity of [^3H]-Mesulergine bound to the 5-HT2C receptor is measured using Microbeta2 (PerkinElmer) at a measurement time of 1 min/well. Non-specific binding is calculated from the radioactivity of [^3H]-Mesulergine in the presence of 500 µmol/L Ketanserin of unlabeled ligand, and total binding is calculated from the radioactivity of [^3H]-Mesulergine in the absence of the compound of the present invention (Vehicle). Finally, the Ki value is calculated from the dose-response curve.
(The binding activity of the compound according to the present invention is calculated from the following binding inhibition rate (%).) Inhibition rate (%) = [1−(c−a)/(b−a)] × 100 [formula] • a; average cpm of non-specific binding • b; average cpm of total binding • c; cpm in the presence of the test compound
The compounds of the present invention were tested essentially as described above.

[3] = [3H]-Ketanserin, non-specific binding with 500 µmol/L Ketanserin, room temperature (25°C), 1.5 hours, read-out: h 5-HT2A Ki

Row | Structure (SMILES) | Ki [1, 3] | Ki [2] | Ki [1]
1 | Cc1ncnc(C)c1-c1cc(Nc2ncc(Cl)cc2F)ccc1OCCO [Compound I-057] | 0.386 nM | 5.3 nM | –
2 | Cn1ncc(Br)c1-c1cc(Nc2ccc(OC(F)F)cn2)ccc1OCCO [Compound I-060] | 0.158 nM | 0.184 nM | –
3 | Cn1ncc(Br)c1-c1cc(Nc2ccc(OC(F)(F)F)cc2)ccc1OCCO [Compound I-061] | 0.254 nM | 1.31 nM | –
4 | Cn1ncc(Br)c1-c1cc(Nc2nc3cc(Cl)ccc3s2)ccc1OCCO [Compound I-069] | 0.373 nM | 0.36 nM | –
5 | Cn1ncc(Br)c1-c1cc(Nc2nc3ccc(F)cc3s2)ccc1OCCO [Compound I-070] | 0.302 nM | 0.213 nM | –
6 | Cn1ncc(Br)c1-c1cc(Nc2nc3c(Cl)cccc3s2)ccc1OCCO [Compound I-071] | 0.379 nM | 1.96 nM | –
7 | Cn1ncc(C#N)c1-c1cc(Nc2ncc(C(F)(F)F)cc2F)ncc1OCCO [Compound I-072] | 0.412 nM | 4.64 nM | –
8 | Cn1ncc(Br)c1-c1nc(Nc2ccc(C(F)(F)F)cn2)ccc1OCCO [Compound I-073] | – | 0.936 nM | 0.184 nM
9 | Cc1cnn(C)c1-c1cc(Nc2ccc(C(F)(F)F)cn2)ccc1OCCO [Compound I-075] | 0.149 nM | 0.939 nM | –
10 | Cn1ncc(Br)c1-c1cc(Nc2nc3cnccc3s2)ccc1OCCO [Compound I-076] | 0.211 nM | 3 nM | –
11 | Cn1ncc(Br)c1-c1cc(Nc2nc3cc(F)ccc3[nH]2)ccc1OCCO [Compound I-077] | 0.23 nM | 3.25 nM | –
12 | Cn1ncc(Br)c1-c1cc(Nc2nc3cc(Cl)ccc3[nH]2)ccc1OCCO [Compound I-078] | 0.263 nM | 1.1 nM | –
13 | Cn1ncc(Br)c1-c1cc(Nc2ccc(C(C)(F)F)cn2)ccc1OCCO [Compound I-080] | 0.445 nM | 2.74 nM | –
14 | Cn1ncc(Br)c1-c1cc(Nc2ccc(C(F)(F)F)cn2)cnc1OCCO [Compound I-081] | 0.202 nM | 0.457 nM | –
15 | Cc1cnn(C)c1-c1cc(Nc2ncc(C(F)(F)F)cc2F)cnc1OCCO [Compound I-083] | 0.289 nM | 2.97 nM | –
16 | Cn1ncc(Br)c1-c1cc(Nc2nc3cc(Br)ccc3n2C)ccc1OCCO [Compound I-084] | 0.442 nM | 0.297 nM | –
17 | COc1ccc2nc(Nc3ccc(OCCO)c(-c4c(Br)cnn4C)c3)sc2c1 [Compound I-085] | 0.192 nM | 0.55 nM | –

Row | Structure (SMILES) | Ki [1, 3] | Ki [2] | Ki [1]
18 | Cn1ncc(C#N)c1-c1cc(Nc2ncc(C(F)(F)F)cc2F)cnc1OCCO [Compound I-087] | 0.241 nM | 6.37 nM | –
19 | Cc1cnn(C)c1-c1cc(Nc2ncc(Cl)cc2F)ncc1OCCO [Compound I-088] | 0.267 nM | 8.31 nM | –
20 | Cn1ncc(Br)c1-c1cc(Nc2ncc(F)cc2F)ncc1OCCO [Compound I-089] | 0.412 nM | 3 nM | –
21 | Cn1ncc(Br)c1-c1cc(Nc2ccc(Cl)cn2)ccc1OCCO [Compound I-090] | 0.203 nM | 0.575 nM | –
22 | Cn1ncc(Br)c1-c1cc(Nc2ccc(C(F)F)cn2)ccc1OCCO [Compound I-091] | 0.197 nM | 8.99 nM | –
23 | Cn1ncc(Br)c1-c1cc(Nc2nc3ccc(F)cc3n2C)ccc1OCCO [Compound I-092] | 0.274 nM | 2.76 nM | –
24 | Cn1ncc(Br)c1-c1cc(Nc2ccc(C3CCC3)cn2)ccc1OCCO [Compound I-093] | 0.283 nM | 0.325 nM | –
25 | Cn1cnc(Br)c1-c1cc(Nc2ncc(Cl)cc2F)ccc1OCCO [Compound I-096] | 0.341 nM | 1.66 nM | –
26 | Cc1nc(C)c(-c2cc(Nc3ncc(Cl)cc3F)ccc2OCCO)c(C)n1 [Compound I-098] | 0.559 nM | 3.18 nM | –
27 | Cn1ncc(C#N)c1-c1cc(Nc2ccc(C(F)(F)F)cn2)ccc1OCCO [Compound I-099] | 0.224 nM | 7.15 nM | –
28 | Cc1ncnc(C)c1-c1cc(Nc2ccc(C(F)(F)F)cn2)ccc1OCCO [Compound I-100] | 0.27 nM | 6.82 nM | –
29 | Cn1ncc(Br)c1-c1cc(Nc2nc3cc(F)ccc3n2C)ccc1OCCO [Compound I-101] | 0.497 nM | 3.11 nM | –
30 | Cn1ncc(C#N)c1-c1cc(Nc2ccc(Cl)cn2)ccc1OCCO [Compound I-102] | 0.265 nM | 7.3 nM | –
31 | Cc1ncnc(C)c1-c1cc(Nc2ccc(Cl)cn2)ccc1OCCO [Compound I-103] | 0.351 nM | 9.13 nM | –
32 | Cn1ncc(Br)c1-c1cc(Nc2nc(C3CC3)ns2)ccc1OCCO [Compound I-104] | 0.39 nM | 6.13 nM | –
33 | Cc1cc(OCCO)c(-c2c(C#N)cnn2C)cc1Nc1ncc(C(F)(F)F)cc1F [Compound I-107] | 1.67 nM | 99.3 nM | –
34 | Cn1ncc(C#N)c1-c1cc(Nc2ncc(C(F)(F)F)cc2F)c(Cl)cc1OCCO [Compound I-109] | – | 15.4 nM | 0.598 nM

Now from value to compound, other results behind:

Row | Ki [1, 3] | Ki [2] | Structure (SMILES) | Ki [1]
35 | 0.389 nM | 0.368 nM | Cn1ncc(C(F)(F)F)c1-c1cc(Nc2ncc(C(F)(F)F)cc2F)ccc1OCCO [Compound I-052] | –
36 | 0.291 nM | 1.25 nM | C=Cc1cnn(C)c1-c1cc(Nc2ncc(C(F)(F)F)cc2F)ccc1OCCO [Compound I-053] | –
37 | 0.396 nM | 0.745 nM | CCc1cnn(C)c1-c1cc(Nc2ncc(C(F)(F)F)cc2F)ccc1OCCO [Compound I-055] | –
38 | 0.45 nM | 30 nM | Cn1nccc1-c1cc(Nc2ncc(C(F)(F)F)cc2F)ncc1OCCO [Compound I-059] | –
39 | 0.222 nM | 0.17 nM | CCn1ncc(Br)c1-c1cc(Nc2ncc(C(F)(F)F)cc2F)ccc1OCCO [Compound I-066] | –
40 | 0.403 nM | 0.196 nM | OCCOc1ccc(Nc2ncc(C(F)(F)F)cc2F)cc1-c1c(Br)cnn1C1CC1 [Compound I-067] | –
41 | 0.29 nM | 1.15 nM | CCn1ncc(C)c1-c1cc(Nc2ncc(C(F)(F)F)cc2F)ccc1OCCO [Compound I-068] | –
42 | 0.236 nM | 0.843 nM | Cc1cnn(C2CC2)c1-c1cc(Nc2ncc(C(F)(F)F)cc2F)ccc1OCCO [Compound I-074] | –
43 | 0.295 nM | 0.625 nM | COc1cnc(Nc2ccc(OCCO)c(-c3c(Br)cnn3C)c2)c(F)c1 [Compound I-079] | –
44 | 0.205 nM | 8.84 nM | Cn1ncc(F)c1-c1cc(Nc2ncc(Cl)cc2F)ccc1OCCO [Compound I-086] | –
45 | 0.258 nM | 0.202 nM | Cn1ncc(Br)c1-c1cc(Nc2ccc(CC(F)(F)F)cn2)ccc1OCCO [Compound I-094] | –
46 | 0.372 nM | 0.761 nM | Cn1cnc(Cl)c1-c1cc(Nc2ncc(C(F)(F)F)cc2F)ccc1OCCO [Compound I-095] | –
47 | 0.509 nM | 1.34 nM | Cc1nc(C)c(-c2cc(Nc3ncc(C(F)(F)F)cc3F)ccc2OCCO)c(C)n1 [Compound I-097] | –
48 | 0.314 nM | 0.6 nM | Cn1ncc(Br)c1-c1cc(Nc2ncc(C(F)(F)F)cn2)ccc1OCCO [Compound I-105] | –
49 | 0.409 nM | 7.28 nM | Cn1cnc(F)c1-c1cc(Nc2ncc(C(F)(F)F)cc2F)ccc1OCCO [Compound I-106] | –
